Test results reported in patent US20220119354A1, “DIAMINO-SUBSTITUTED PYRIDINES AND PYRIMIDINES AS HERBICIDES” (FMC Corporation, priority 2019, published 2022).

Key:
Format in all cases: in vivo
[1] = tested on: ducksalad (Heteranthera limosa); assay: Test B flooded paddy test, ducksalad; conditions: Flood, 250 g ai/ha, applied to paddy water, 2-leaf stage, visual evaluation after 13 to 15 d
How it was run: (§1)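 Rating: 0 = no effect, 100 = complete control, visual, relative to untreated plants. Conditions: 2-leaf stage, 3 cm flood kept constant, compound put directly into water, 13–15 d greenhouse.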

[2] = tested on: ryegrass, Italian (Lolium multiflorum); assay: Test A postemergence, Italian ryegrass; conditions: 0 to 100 scale
How it was run: (§2)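 Visual injury scored against untreated controls about 10 d after treatment, scale 0 = no effect to 100 = complete control. Compounds, formulated with surfactant in a non-phytotoxic solvent, went on as directed soil spray preemergence or onto 2–10 cm, one- to two-leaf plants postemergence; loam–sand soil, greenhouse.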

[3] = tested on: wheat (Triticum aestivum); assay: Test A postemergence, wheat; conditions: 0 to 100 scale
How it was run: as §2

[4] = tested on: foxtail, giant (Setaria faberii); assay: Test A preemergence, giant foxtail; conditions: 0 to 100 scale
How it was run: as §2

[5] = tested on: ragweed (common ragweed, Ambrosia elatior); assay: Test A postemergence, ragweed; conditions: 0 to 100 scale
How it was run: as §2

[6] = tested on: sedge, umbrella (small-flower umbrella sedge, Cyperus difformis); assay: Test B flooded paddy test, umbrella sedge; conditions: Flood, 250 g ai/ha, applied to paddy water, 2-leaf stage, visual evaluation after 13 to 15 d
How it was run: as §1

[7] = tested on: kochia (Kochia scoparia); assay: Test A postemergence, kochia; conditions: 0 to 100 scale
How it was run: as §2

[8] = tested on: ryegrass, Italian (Lolium multiflorum); assay: Test A preemergence, Italian ryegrass; conditions: 0 to 100 scale
How it was run: as §2

[9] = tested on: kochia (Kochia scoparia); assay: Test A preemergence, kochia; conditions: 0 to 100 scale
How it was run: as §2

[10] = tested on: blackgrass (Alopecurus myosuroides); assay: Test A postemergence, blackgrass; conditions: 0 to 100 scale
How it was run: as §2

[11] = tested on: pigweed (Amaranthus retroflexus); assay: Test A postemergence, pigweed; conditions: 0 to 100 scale
How it was run: as §2

[12] = tested on: corn (Zea mays); assay: Test A postemergence, corn; conditions: 0 to 100 scale
How it was run: as §2

[13] = tested on: galium (catchweed bedstraw, Galium aparine); assay: Test A postemergence, galium; conditions: 0 to 100 scale
How it was run: as §2

[14] = tested on: pigweed (Amaranthus retroflexus); assay: Test A preemergence, pigweed; conditions: 0 to 100 scale
How it was run: as §2

[15] = tested on: barnyardgrass (Echinochloa crus-galli); assay: Test B flooded paddy test, barnyardgrass; conditions: Flood, 250 g ai/ha, applied to paddy water, 2-leaf stage, visual evaluation after 13 to 15 d
How it was run: as §1

[16] = tested on: barnyardgrass (Echinochloa crus-galli); assay: Test A postemergence, barnyardgrass; conditions: 0 to 100 scale
How it was run: as §2

[17] = tested on: ragweed (common ragweed, Ambrosia elatior); assay: Test A preemergence, ragweed; conditions: 0 to 100 scale
How it was run: as §2

[18] = tested on: foxtail, giant (Setaria faberii); assay: Test A postemergence, giant foxtail; conditions: 0 to 100 scale
How it was run: as §2

[19] = tested on: barnyardgrass (Echinochloa crus-galli); assay: Test A preemergence, barnyardgrass; conditions: 0 to 100 scale
How it was run: as §2

[20] = tested on: rice (Oryza sativa); assay: Test B flooded paddy test, rice; conditions: Flood, 250 g ai/ha, applied to paddy water, 2-leaf stage, visual evaluation after 13 to 15 d
How it was run: as §1

Cc1cc(C)cc(OC[C@@H](C)Nc2ncc(C(F)(F)F)c(N)n2)c1 [Compound 25, N2-[(1R)-2-(3,5-dimethylphenoxy)-1-methylethyl]-5-(trifluoromethyl)-2,4-pyrimidinediamine]
pest or weed control at 250 g/ha ([1]; Heteranthera limosa, 360 h, read-out: Plant response rating, Ducksalad (0 to 100 scale, 0 is no effect, 100 is complete control)): 0%
pest or weed control at 125 g/ha ([2]; Lolium multiflorum, post-emergence, 240 h, 125 g ai/ha, read-out: Plant response rating, Ryegrass, Italian): 0%
pest or weed control at 500 g/ha ([2]; Lolium multiflorum, post-emergence, 240 h, 500 g ai/ha, read-out: Plant response rating, Ryegrass, Italian): 20%
plant injury at 125 g/ha ([3]; Triticum aestivum, post-emergence, 240 h, 125 g ai/ha, read-out: Plant response rating, Wheat): 0%
plant injury at 500 g/ha ([3]; Triticum aestivum, post-emergence, 240 h, 500 g ai/ha, read-out: Plant response rating, Wheat): 30%
Plant response rating, Foxtail, Giant ([4]; 125 g ai/ha): 50
Plant response rating, Foxtail, Giant ([4]; 500 g ai/ha): 100
pest or weed control at 125 g/ha ([5]; Ambrosia artemisiifolia, post-emergence, 240 h, 125 g ai/ha, read-out: Plant response rating, Ragweed): 60%
pest or weed control at 500 g/ha ([5]; Ambrosia artemisiifolia, post-emergence, 240 h, 500 g ai/ha, read-out: Plant response rating, Ragweed): 90%
pest or weed control at 250 g/ha ([6]; Cyperus difformis, 360 h, read-out: Plant response rating, Sedge, Umbrella (0 to 100 scale, 0 is no effect, 100 is complete control)): 100%
pest or weed control at 125 g/ha ([7]; Bassia scoparia, post-emergence, 240 h, 125 g ai/ha, read-out: Plant response rating, Kochia): 60%
pest or weed control at 500 g/ha ([7]; Bassia scoparia, post-emergence, 240 h, 500 g ai/ha, read-out: Plant response rating, Kochia): 80%
Plant response rating, Ryegrass, Italian ([8]; 125 g ai/ha): 20
Plant response rating, Ryegrass, Italian ([8]; 500 g ai/ha): 70
Plant response rating, Kochia ([9]; 125 g ai/ha): 20
Plant response rating, Kochia ([9]; 500 g ai/ha): 90
pest or weed control at 125 g/ha ([10]; Alopecurus myosuroides, post-emergence, 240 h, 125 g ai/ha, read-out: Plant response rating, Blackgrass): 0%
pest or weed control at 500 g/ha ([10]; Alopecurus myosuroides, post-emergence, 240 h, 500 g ai/ha, read-out: Plant response rating, Blackgrass): 70%
pest or weed control at 125 g/ha ([11]; Amaranthus retroflexus, post-emergence, 240 h, 125 g ai/ha, read-out: Plant response rating, Pigweed): 70%
pest or weed control at 500 g/ha ([11]; Amaranthus retroflexus, post-emergence, 240 h, 500 g ai/ha, read-out: Plant response rating, Pigweed): 90%
Corn plant response rating (crop injury, 0 = no effect, 100 = complete kill) at 125 g/ha ([12]; Zea mays, post-emergence, 240 h, 125 g ai/ha): 20%
Corn plant response rating (crop injury, 0 = no effect, 100 = complete kill) at 500 g/ha ([12]; Zea mays, post-emergence, 240 h, 500 g ai/ha): 60%
pest or weed control at 125 g/ha ([13]; Galium, post-emergence, 240 h, 125 g ai/ha, read-out: Plant response rating, Galium): 80%
pest or weed control at 500 g/ha ([13]; Galium, post-emergence, 240 h, 500 g ai/ha, read-out: Plant response rating, Galium): 90%
Plant response rating, Pigweed ([14]; 125 g ai/ha): 60
Plant response rating, Pigweed ([14]; 500 g ai/ha): 100
pest or weed control at 250 g/ha ([15]; Echinochloa crus-galli, 360 h, read-out: Plant response rating, Barnyardgrass (0 to 100 scale, 0 is no effect, 100 is complete control)): 0%
pest or weed control at 125 g/ha ([16]; Echinochloa crus-galli, post-emergence, 240 h, 125 g ai/ha, read-out: Plant response rating, Barnyardgrass): 50%
pest or weed control at 500 g/ha ([16]; Echinochloa crus-galli, post-emergence, 240 h, 500 g ai/ha, read-out: Plant response rating, Barnyardgrass): 90%
Plant response rating, Ragweed ([17]; 125 g ai/ha): 80
Plant response rating, Ragweed ([17]; 500 g ai/ha): 100
pest or weed control at 125 g/ha ([18]; Setaria faberi, post-emergence, 240 h, 125 g ai/ha, read-out: Plant response rating, Foxtail, Giant): 10%
pest or weed control at 500 g/ha ([18]; Setaria faberi, post-emergence, 240 h, 500 g ai/ha, read-out: Plant response rating, Foxtail, Giant): 80%
Plant response rating, Barnyardgrass ([19]; 125 g ai/ha): 90
Plant response rating, Barnyardgrass ([19]; 500 g ai/ha): 100
plant injury at 250 g/ha ([20]; Oryza sativa, 360 h, read-out: Plant response rating, Rice (0 to 100 scale, 0 is no effect, 100 is complete control)): 0%

C[C@H](COc1ccccc1)Nc1ncc(C(F)(F)F)c(N)n1 [Compound 26]
Plant response rating, Ducksalad (0 to 100 scale, 0 is no effect, 100 is complete control) [1]: 0
Plant response rating, Ryegrass, Italian ([2]; 1000 g ai/ha): 10
Plant response rating, Wheat ([3]; 1000 g ai/ha): 0
Plant response rating, Foxtail, Giant ([4]; 1000 g ai/ha): 50
Plant response rating, Ragweed ([5]; 1000 g ai/ha): 30
Plant response rating, Sedge, Umbrella (0 to 100 scale, 0 is no effect, 100 is complete control) [6]: 0
Plant response rating, Kochia ([7]; 1000 g ai/ha): 30
Plant response rating, Ryegrass, Italian ([8]; 1000 g ai/ha): 20
Plant response rating, Kochia ([9]; 1000 g ai/ha): 0
Plant response rating, Blackgrass ([10]; 1000 g ai/ha): 0
Plant response rating, Pigweed ([11]; 1000 g ai/ha): 50
Plant response rating, Corn ([12]; 1000 g ai/ha): 10
Plant response rating, Galium ([13]; 1000 g ai/ha): 60
Plant response rating, Pigweed ([14]; 1000 g ai/ha): 80
Plant response rating, Barnyardgrass (0 to 100 scale, 0 is no effect, 100 is complete control) [15]: 0
Plant response rating, Barnyardgrass ([16]; 1000 g ai/ha, 0 no effect, 100 complete control): 0
Plant response rating, Ragweed ([17]; 1000 g ai/ha): 100
Plant response rating, Foxtail, Giant ([18]; 1000 g ai/ha): 0
Plant response rating, Barnyardgrass ([19]; 1000 g ai/ha): 10
Plant response rating, Rice (0 to 100 scale, 0 is no effect, 100 is complete control) [20]: 0
